For 3 molecules, IC50 results are on record in ChEMBL document CHEMBL1201862, “PubChem BioAssay data set” (2004).

Calls of active or inactive are those of the source.

The target of one assay is T1, Hexokinase HKDC1 (Homo sapiens, UniProt Q2TB90).
T1 sequence (Q2TB90 whole entry): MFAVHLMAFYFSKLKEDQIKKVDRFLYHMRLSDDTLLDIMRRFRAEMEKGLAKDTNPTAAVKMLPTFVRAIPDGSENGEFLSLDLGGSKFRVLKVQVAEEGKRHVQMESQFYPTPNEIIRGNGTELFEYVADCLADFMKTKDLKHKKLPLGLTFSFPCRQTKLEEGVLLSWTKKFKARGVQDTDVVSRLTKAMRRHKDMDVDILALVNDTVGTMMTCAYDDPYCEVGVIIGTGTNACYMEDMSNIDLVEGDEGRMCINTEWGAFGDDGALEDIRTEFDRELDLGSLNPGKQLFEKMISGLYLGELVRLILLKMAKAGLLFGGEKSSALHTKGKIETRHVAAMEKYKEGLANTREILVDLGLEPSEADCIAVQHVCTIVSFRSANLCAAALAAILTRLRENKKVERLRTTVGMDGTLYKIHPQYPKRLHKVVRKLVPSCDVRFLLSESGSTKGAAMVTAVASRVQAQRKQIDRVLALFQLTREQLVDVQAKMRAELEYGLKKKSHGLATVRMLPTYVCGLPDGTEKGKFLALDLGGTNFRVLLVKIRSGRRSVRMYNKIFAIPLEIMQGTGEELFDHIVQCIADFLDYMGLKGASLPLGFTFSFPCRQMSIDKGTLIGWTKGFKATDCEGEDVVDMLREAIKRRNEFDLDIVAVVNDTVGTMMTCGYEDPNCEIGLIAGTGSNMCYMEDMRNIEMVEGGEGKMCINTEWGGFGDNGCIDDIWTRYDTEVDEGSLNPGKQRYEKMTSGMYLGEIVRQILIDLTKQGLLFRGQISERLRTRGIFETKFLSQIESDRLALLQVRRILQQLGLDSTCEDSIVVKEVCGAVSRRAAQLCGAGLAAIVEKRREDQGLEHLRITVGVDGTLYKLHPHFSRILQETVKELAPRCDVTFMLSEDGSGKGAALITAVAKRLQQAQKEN
Kind of assay: SAR analysis of small molecule inhibitors of hexokinase domain containing I (HKDC1). [Related pubchem assays (depositor defined):AID493160, AID493190]. The class given is functional.

In another assay the target is T2, Hexokinase-1 (Homo sapiens, UniProt P19367).
T2 sequence (P19367 whole entry): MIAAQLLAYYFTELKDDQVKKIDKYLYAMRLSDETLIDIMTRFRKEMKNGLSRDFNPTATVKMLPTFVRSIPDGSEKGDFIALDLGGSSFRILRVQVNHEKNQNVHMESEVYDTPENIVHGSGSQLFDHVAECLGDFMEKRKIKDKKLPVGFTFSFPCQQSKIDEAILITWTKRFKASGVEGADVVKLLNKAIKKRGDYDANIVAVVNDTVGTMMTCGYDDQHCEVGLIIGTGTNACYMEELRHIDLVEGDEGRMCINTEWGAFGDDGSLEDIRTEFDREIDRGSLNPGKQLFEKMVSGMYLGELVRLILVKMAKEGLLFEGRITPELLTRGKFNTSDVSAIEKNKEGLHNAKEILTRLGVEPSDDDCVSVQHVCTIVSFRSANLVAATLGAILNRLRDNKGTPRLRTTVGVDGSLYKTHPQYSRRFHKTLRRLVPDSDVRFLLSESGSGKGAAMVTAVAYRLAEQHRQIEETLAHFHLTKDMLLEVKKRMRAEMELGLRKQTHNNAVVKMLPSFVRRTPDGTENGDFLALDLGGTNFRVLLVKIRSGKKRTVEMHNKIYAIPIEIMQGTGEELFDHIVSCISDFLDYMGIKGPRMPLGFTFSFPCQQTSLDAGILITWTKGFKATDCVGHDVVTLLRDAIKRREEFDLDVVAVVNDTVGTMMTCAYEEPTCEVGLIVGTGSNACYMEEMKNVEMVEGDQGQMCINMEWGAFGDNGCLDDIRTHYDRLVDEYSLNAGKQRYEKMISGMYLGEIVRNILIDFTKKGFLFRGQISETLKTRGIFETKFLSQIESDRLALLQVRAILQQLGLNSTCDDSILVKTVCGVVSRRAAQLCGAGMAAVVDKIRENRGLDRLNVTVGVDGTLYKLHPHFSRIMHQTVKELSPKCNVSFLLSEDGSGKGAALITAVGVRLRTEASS
The assay can be described thus: SAR analysis of small molecule inhibitors of hexokinase domain containing I (HKDC1) in the hexokinase 1 selectivity assay. [Related pubchem assays (depositor defined):AID493160, AID493190]. Type of assay: functional.

Regarding `O=c1c2ccccc2nc(/C=C/c2ccccc2)n1CCc1ccccc1`, the IC50 at Hexokinase HKDC1 and on Hexokinase-1 was > 80 µM (inactive) in each case.

Turning to `Cc1ccc(C)c(S(=O)(=O)Nc2cccc3ccccc23)c1`, the IC50 on Hexokinase HKDC1 and at Hexokinase-1 was > 80 µM (inactive) each time.

Consider `O=S(=O)(Nc1ccc(O)c2ccccc12)c1ccc(Cl)cc1`, for which the half-maximal inhibitory concentration (IC50) was 15.6 µM (active) at Hexokinase HKDC1 and > 80 µM (inactive) at Hexokinase-1.
